Common to all, as to test: DTP human tumour cell line panel, 48 h
In assay [1] the test system is EKVX NSCLC.
Assay [2] concerns K-562 leukemia.
In assay [3] the test system is SW-620 colon.
Assay [4] relates to SK-MEL-28 melanoma.
The subject of assay [5] is NCI/ADR-RES ovarian.
Assay [6] concerns OVCAR-3 ovarian.
Assay [7] has as its system PC-3 prostate.
Assay [8] has as its system RXF 393 renal.
The test system of assay [9] is RPMI-8226 leukemia.
The test system of assay [10] is NCI-H226 lung.
Assay [11] concerns MALME-3M melanoma.
The subject of assay [12] is 786-0 renal.
The test system of assay [13] is UO-31 renal.

Molecules are shown by their SMILES.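 Cultured in 96-well plates, cells were exposed to test compound for 48 hours across five concentrations. The concentration for full growth arrest is given as TGI.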

These results are taken from PubChem BioAssay (NCI).

The term TGI denotes the concentration at which net growth stops. Low readings indicate greater sensitivity of the cells, high ones lower sensitivity of the cells.

Take `COc1cc2c3c([nH]c2c(OC)c1OC)CCN(Cc1ccccc1)C3`: the TGI in assay [1] was more than 100 µM; in assay [2], 84.2 µM; in [3] it was more than 100 µM; in [4], 50.5 µM; in assay [5] it was more than 100 µM; in assay [6] it was more than 100 µM. Also, the TGI was more than 100 µM in [7]; more than 100 µM in assay [8]; 52.5 µM in assay [9]; more than 100 µM in assay [10]; 38.1 µM in assay [11]; more than 100 µM in assay [12].

As to `NC(Cc1ccc(S(=O)(=O)O)cc1)C(=O)NC(Cc1ccc(S(=O)(=O)O)cc1)C(=O)NC(Cc1ccc(S(=O)(=O)O)cc1)C(=O)NC(Cc1ccc(S(=O)(=O)O)cc1)C(=O)O` (stereo not drawn), the TGI in [1], in assay [13], in assay [3], in assay [4], in assay [5] and in [6] was more than 100 µM in each case. For the same compound, the TGI in [7], in [8], in assay [9], in assay [10], in [11] and in [12] was more than 100 µM in each case.

For `O=c1[nH]c2nc3ccccc3c(=O)n2/c1=C/c1ccco1`, the TGI in [1], in [13], in [2], in assay [3], in assay [4] and in [5] was more than 100 µM in each case. Also, the total growth inhibition concentration (TGI) in assay [6], in assay [7], in assay [9], in [10], in assay [11] and in assay [12] was more than 100 µM in each case.

Turning to `C=C(C)[C@@H]1CC[C@]2(C(=O)OC)CC[C@]3(C)[C@H](CC[C@@H]4[C@@]5(C)CC[C@H](O)C(C)(C)[C@@H]5CC[C@]43C)[C@@H]12`, the TGI in assay [1] came to 45.1 µM; in assay [13], 49.1 µM; in assay [2] it was 47 µM; in [3] it was 38.8 µM; in assay [4] it was 47.2 µM; in assay [5] it was 51.7 µM. For the same compound, the TGI in assay [6] came out at 40.1 µM; in [7], 34.8 µM; in assay [8], 38.9 µM; in [10], 44.4 µM; in [11], 53 µM; in assay [12], 45.9 µM.

Regarding `CCCCNc1nc(NC2OCC(OC(C)=O)C(OC(C)=O)C2OC(C)=O)c(N=O)c(=O)n1C` (stereo not drawn), the TGI in [1], in [3], in assay [4], in assay [5], in [6] and in [7] was more than 10 µM each time. Moreover, the TGI in assay [8], in assay [9], in [10], in assay [11] and in assay [12] was more than 10 µM each time.

`COc1ccc(C2=NOC(N)(c3ccc(OC)cc3)C2)cc1` (stereo not drawn): the total growth inhibition concentration (TGI) in [1], in assay [13], in [2], in assay [3], in assay [4] and in [5] was more than 100 µM throughout. In addition, the TGI in assay [6], in assay [7], in assay [9], in [10], in assay [11] and in [12] was more than 100 µM each time.

`N#CCCC1(CCC#N)CCCCCCCCC(CCC#N)(CCC#N)C(O)C1O` (stereo not drawn): the total growth inhibition concentration (TGI) in assay [1], in assay [2], in [3], in [4], in assay [5] and in assay [6] was more than 100 µM in each case. Also, the TGI in [7] was more than 100 µM; in [8], 86.9 µM; in assay [9] it was 58.2 µM; in assay [10], more than 100 µM; in assay [11] it was more than 100 µM; in assay [12] it was more than 100 µM.

Turning to `CC1(C)CC(=O)c2c(nc3c4c([nH]c(-c5ccc(Br)cc5)c24)CC(C)(C)C3)C1`, the TGI in assay [1], in assay [13], in assay [2], in [3], in assay [4] and in [5] was more than 100 µM throughout. Further, the total growth inhibition concentration (TGI) in assay [6] is more than 100 µM; in assay [7], more than 100 µM; in assay [8], 65.3 µM; in assay [10] it was more than 100 µM; in assay [11], more than 100 µM; in assay [12], 91 µM.

`CC[C@@]1(O)C(=O)OCc2c1cc1n(c2=O)Cc2c-1nc1ccccc1c2/C=N\NC(=O)C(N)CCSC` (stereo partly drawn): the TGI is more than 100 µM in [1]; 0.277 µM in [13]; more than 100 µM in assay [2]; more than 41.1 µM in [3]; more than 100 µM in assay [4]; 23.9 µM in [5]. Further, the TGI in assay [6] is 3.08 µM; in assay [7], more than 100 µM; in assay [9], 4.03 µM; in [10], 1.11 µM; in [11], 14.5 µM; in assay [12], 1.92 µM.

On to `C=CCOc1ccc(C2C(C(=O)OC)C(=O)CC(O)(c3ccccc3)C2C(=O)OC)cc1OC` (stereo not drawn), for which the TGI in assay [1] is more than 100 µM; in assay [13] it was 61.8 µM; in assay [2], more than 100 µM; in assay [3], more than 100 µM; in [4] it was more than 100 µM; in assay [5], 66 µM. For the same compound, the TGI in assay [6] is more than 100 µM; in assay [7], more than 100 µM; in [8] it was 37.2 µM; in assay [10], 60.3 µM; in assay [11] it was more than 100 µM; in assay [12], 39 µM.

For `CC(=O)O[C@H]1CC[C@@]2(C)C(=CC[C@@H]3[C@@H]2CC[C@]2(C)c4nc(Cl)ccc4C[C@@H]32)C1`, the TGI in assay [1], in assay [13], in assay [2], in assay [3], in assay [4] and in assay [5] was more than 100 µM each time. The TGI in [6] was 69.8 µM; in assay [7], more than 100 µM; in assay [8], more than 100 µM; in [10], more than 100 µM; in assay [11] it was more than 100 µM; in [12], more than 100 µM.

For `CN(C)CCNC(=O)c1cccc2c(NC(CCC(N)=O)C(=O)O)c3ccccc3nc12` (stereo not drawn), the total growth inhibition concentration (TGI) in assay [1] is 53.3 µM; in assay [13] it was 7.15 µM; in [2] it was more than 100 µM; in assay [3], more than 100 µM; in assay [4], 38.1 µM; in assay [5], more than 100 µM. The TGI in assay [6] was more than 100 µM; in assay [7], 23.5 µM; in [9] it was more than 100 µM; in [10], 46.6 µM; in [11], 19.5 µM; in assay [12] it was more than 100 µM.

As to `C=C1CC[C@@H](C)[C@](C)(CCc2ccoc2)C/C=C\C=C/1C(=O)O`, the TGI in [1] was more than 100 µM; in [13], more than 100 µM; in [2], more than 100 µM; in [3], more than 100 µM; in [4], 48.6 µM; in [5], more than 100 µM. In addition, the concentration for total growth inhibition (TGI) was 42.9 µM in assay [6]; more than 100 µM in assay [7]; 90.8 µM in assay [8]; more than 100 µM in assay [10]; more than 100 µM in assay [11]; more than 100 µM in [12].

Regarding `COc1cc(Nc2nc3cc(C(F)(F)F)ccc3n3cccc23)cc(OC)c1OC`, the TGI in assay [1], in assay [13], in assay [2], in [3], in assay [4] and in assay [5] was more than 100 µM each time. The TGI in assay [6], in assay [7], in [8], in assay [9] and in assay [11] was more than 100 µM in each case.

With `CO/N=C1/c2sccc2[C@H](NC(=O)C(Cc2ccccc2)NC(=O)OC(C)(C)C)[C@@H]1O` (stereo partly drawn), the TGI in [1], in assay [13], in [2], in [3], in assay [4] and in assay [5] was more than 100 µM in each case. Besides, the TGI in assay [6], in assay [7], in assay [8], in assay [10] and in assay [11] was more than 100 µM in each case.

Turning to `CCOC(=O)C1CCCCN1C(=O)Cc1c[nH]c2ccccc12` (stereo not drawn), the TGI in [1], in [2], in assay [3], in assay [4], in [5] and in assay [6] was more than 100 µM in each case. Also, the total growth inhibition concentration (TGI) was more than 100 µM in assay [7]; more than 100 µM in [8]; 64.7 µM in [9]; more than 100 µM in assay [10]; more than 100 µM in assay [11]; more than 100 µM in assay [12].

For the compound `CN=C(Nc1cccc(C(F)(F)F)c1)SCc1ccc(N=C=S)cc1`, the TGI is 45.1 µM in assay [1]; 28.4 µM in [13]; more than 100 µM in assay [2]; 41 µM in assay [3]; 48.9 µM in assay [4]; 61.3 µM in assay [5]. The TGI is 29.4 µM in assay [7]; 29.3 µM in assay [8]; 45.8 µM in [9]; 45 µM in assay [10]; 27.8 µM in assay [11]; 31 µM in assay [12].

As for `COc1cccc(/N=N/C(=NNC(=O)c2ccc(C)cc2)c2ccc(N(C)C)cc2)c1`, the TGI in assay [1], in assay [13], in [2], in assay [3], in assay [4] and in assay [5] was more than 100 µM throughout. The TGI in assay [6], in assay [7], in [9], in assay [10] and in assay [12] was more than 100 µM in each case.

Turning to `CC(C)/C(Cl)=N/OC(=O)Nc1ccc(Cl)c(Cl)c1`, the TGI in assay [1] worked out at 3.95 µM; in assay [13], 28.6 µM; in assay [3], 4.35 µM; in [4], 8.5 µM; in assay [5] it was 32 µM; in assay [6] it was 6.4 µM. Further, the concentration for total growth inhibition (TGI) is 33.1 µM in assay [7]; 26.7 µM in assay [8]; 6.92 µM in assay [9]; 32.2 µM in assay [10]; 4.33 µM in assay [11]; 3.46 µM in assay [12].

Turning to `O=c1[nH]c(Nc2nc3ccccc3[nH]2)nc(O)c1Cc1ccccc1`, the TGI in [1], in [13], in assay [2], in assay [3], in assay [4] and in assay [5] was more than 100 µM each time. In addition, the concentration for total growth inhibition (TGI) in assay [7], in assay [9], in [10], in [11] and in assay [12] was more than 100 µM throughout.

Regarding `Cc1cc2c(cc1C)[n+](=O)c(C(=O)c1ccccc1)c(C(F)(F)F)n2[O-]`, the TGI was 2.97 µM in assay [1]; 4.66 µM in assay [13]; 9.14 µM in assay [2]; 21.2 µM in assay [3]; 16.4 µM in [4]; more than 26.2 µM in [5]. In addition, the TGI is 3.8 µM in assay [6]; 9.19 µM in assay [7]; 12.9 µM in [8]; 3.6 µM in assay [9]; 9.89 µM in assay [11]; 14.7 µM in assay [12].

As for `COc1cccc(C2c3cc4c(cc3OC3COC(=O)C32)OCO4)c1OC` (stereo not drawn), the TGI in [1], in assay [13], in assay [3], in assay [4], in assay [5] and in assay [6] was more than 100 µM in each case. Further, the TGI in assay [7], in assay [8], in [10], in assay [11] and in assay [12] was more than 100 µM in each case.
